Data from ChEMBL document CHEMBL1135235, “Structure-activity relationships of oxime neurokinin antagonists: oxime modifications” (Bioorg Med Chem Lett, 2002).

Assays:
Format in all cases: cell-based
[1] = molecular target: T1, Substance-P receptor (Homo sapiens, UniProt P25103); assay: Binding affinity against recombinant human tachykinin receptor 1 in CHO cells using [3H]-Sar SP as a radioligand
[2] = molecular target: T2, Substance-K receptor (Homo sapiens, UniProt P21452); assay: (§1) Binding affinity against recombinant human tachykinin receptor 2 in CHO cells using [3H]NKA as a radioligand
T2 sequence (P21452 whole entry): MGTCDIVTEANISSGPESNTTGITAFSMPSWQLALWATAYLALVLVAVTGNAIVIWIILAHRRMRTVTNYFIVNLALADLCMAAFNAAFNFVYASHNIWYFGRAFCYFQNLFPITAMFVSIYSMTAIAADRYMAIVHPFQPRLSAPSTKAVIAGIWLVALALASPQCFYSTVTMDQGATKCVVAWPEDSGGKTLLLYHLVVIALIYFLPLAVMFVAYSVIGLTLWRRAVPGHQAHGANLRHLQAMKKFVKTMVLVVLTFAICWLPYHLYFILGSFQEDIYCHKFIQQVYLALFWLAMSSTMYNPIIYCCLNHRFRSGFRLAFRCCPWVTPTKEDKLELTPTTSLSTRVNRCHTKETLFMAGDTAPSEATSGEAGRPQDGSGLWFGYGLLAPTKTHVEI

[3] = molecular target: T3, Substance-K receptor (Homo sapiens) (UniProt P21452); assay: as §1; parameters: concentration or dose not given beside the values; conditions: concentration not given here
T3 sequence (whole entry): T2 sequence (P21452 whole entry)

[4] = molecular target: T1, Substance-P receptor; assay: The compound was evaluated for the binding affinity against recombinant human Tachykinin receptor 1 in CHO cells using [3H]-Sar SP as a radioligand; conditions: concentration not given here

T1 sequence (P25103 whole entry): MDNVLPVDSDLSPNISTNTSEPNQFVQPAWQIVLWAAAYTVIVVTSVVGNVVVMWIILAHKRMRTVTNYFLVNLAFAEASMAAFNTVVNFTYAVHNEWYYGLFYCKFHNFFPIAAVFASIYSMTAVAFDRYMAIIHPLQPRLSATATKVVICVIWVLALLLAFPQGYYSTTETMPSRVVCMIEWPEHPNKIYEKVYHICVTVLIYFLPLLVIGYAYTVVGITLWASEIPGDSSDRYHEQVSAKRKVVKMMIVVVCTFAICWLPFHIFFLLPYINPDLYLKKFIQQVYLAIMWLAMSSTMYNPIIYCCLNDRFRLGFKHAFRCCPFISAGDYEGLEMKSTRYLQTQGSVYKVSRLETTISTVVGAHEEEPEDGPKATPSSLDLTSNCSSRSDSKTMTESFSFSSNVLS

SMILES	Ki [1] [nM]	Ki [2] [nM]	inhibition [3] [%]	inhibition [4] [%]
CNC(=O)CO/N=C(\COCc1cc(C(F)(F)F)cc(C(F)(F)F)c1)C(CCN1CCC(O)(c2ccccc2)CC1)c1ccc(Cl)c(Cl)c1 (stereo not drawn)	24	45	–	–
OC1(c2ccccc2)CCN(CCC(/C(COCc2cc(C(F)(F)F)cc(C(F)(F)F)c2)=N/Oc2ccccc2)c2ccc(Cl)c(Cl)c2)CC1 (stereo not drawn)	–	–	23	32
N#CO/N=C(\COCc1cc(C(F)(F)F)cc(C(F)(F)F)c1)C(CCN1CCC(O)(c2ccccc2)CC1)c1ccc(Cl)c(Cl)c1 (stereo not drawn)	15	19	–	–
CN(C/C(=N\OCCC[N+](C)(C)C)C(CCN1CCC(N2CCCCC2=O)CC1)c1ccc(Cl)c(Cl)c1)C(=O)c1cc(Cl)cc(Cl)c1 (stereo not drawn)	1.8	590	–	–
CN(C/C(=N\OCCCS(=O)(=O)O)C(CCN1CCC(N2CCCCC2=O)CC1)c1ccc(Cl)c(Cl)c1)C(=O)c1cc(Cl)cc(Cl)c1 (stereo not drawn)	3.3	2.7	–	–
NC(=O)CO/N=C(\COCc1cc(C(F)(F)F)cc(C(F)(F)F)c1)C(CCN1CCC(O)(c2ccccc2)CC1)c1ccc(Cl)c(Cl)c1 (stereo not drawn)	17	58	–	–
CC(C)CO/N=C(\COCc1cc(C(F)(F)F)cc(C(F)(F)F)c1)C(CCN1CCC(O)(c2ccccc2)CC1)c1ccc(Cl)c(Cl)c1 (stereo not drawn)	–	–	11	43
CONC(COCc1cc(C(F)(F)F)cc(C(F)(F)F)c1)C(CCN1CCC(O)(c2ccccc2)CC1)c1ccc(Cl)c(Cl)c1 (stereo not drawn)	25	350	–	–
COCCO/N=C(\COCc1cc(C(F)(F)F)cc(C(F)(F)F)c1)C(CCN1CCC(O)(c2ccccc2)CC1)c1ccc(Cl)c(Cl)c1 (stereo not drawn)	7	50	–	–
O=C(COCc1cc(C(F)(F)F)cc(C(F)(F)F)c1)C(CCN1CCC(O)(c2ccccc2)CC1)c1ccc(Cl)c(Cl)c1 (stereo not drawn)	15	236	–	–
CN(C/C(=N\OC(F)F)C(CCN1CCC(N2CCCCC2=O)CC1)c1ccc(Cl)c(Cl)c1)C(=O)c1cc(Cl)cc(Cl)c1 (stereo not drawn)	1.7	5	–	–
CC(C)(C)O/N=C(\COCc1cc(C(F)(F)F)cc(C(F)(F)F)c1)C(CCN1CCC(O)(c2ccccc2)CC1)c1ccc(Cl)c(Cl)c1 (stereo not drawn)	–	–	28	46
C=CCO/N=C(\COCc1cc(C(F)(F)F)cc(C(F)(F)F)c1)C(CCN1CCC(O)(c2ccccc2)CC1)c1ccc(Cl)c(Cl)c1 (stereo not drawn)	100	215	–	–
COC(=O)CO/N=C(\CN(C)C(=O)c1cc(Cl)cc(Cl)c1)C(CCN1CCC(N2CCCCC2=O)CC1)c1ccc(Cl)c(Cl)c1 (stereo not drawn)	4.7	16.7	–	–
CN(C/C(=N\OCC(C)(C)O)C(CCN1CCC(N2CCCCC2=O)CC1)c1ccc(Cl)c(Cl)c1)C(=O)c1cc(Cl)cc(Cl)c1 (stereo not drawn)	1.9	23	–	–
COC(=O)CO/N=C(\COCc1cc(C(F)(F)F)cc(C(F)(F)F)c1)C(CCN1CCC(O)(c2ccccc2)CC1)c1ccc(Cl)c(Cl)c1 (stereo not drawn)	25	198	–	–

SMILES	Ki [1] [nM]	Ki [2] [nM]	inhibition [3] [%]	inhibition [4] [%]
COCO/N=C(\COCc1cc(C(F)(F)F)cc(C(F)(F)F)c1)C(CCN1CCC(O)(c2ccccc2)CC1)c1ccc(Cl)c(Cl)c1 (stereo not drawn)	49	42	–	–
O=C(O)CO/N=C(\COCc1cc(C(F)(F)F)cc(C(F)(F)F)c1)C(CCN1CCC(O)(c2ccccc2)CC1)c1ccc(Cl)c(Cl)c1 (stereo not drawn)	8	–	20	–
CC/C=C(\COCc1cc(C(F)(F)F)cc(C(F)(F)F)c1)C(CCN1CCC(O)(c2ccccc2)CC1)c1ccc(Cl)c(Cl)c1 (stereo not drawn)	57	–	28	–
CN(C/C(=N\OCCn1ccnc1)C(CCN1CCC(N2CCCCC2=O)CC1)c1ccc(Cl)c(Cl)c1)C(=O)c1cc(Cl)cc(Cl)c1 (stereo not drawn)	2.8	5.4	–	–
CN(C/C(=N\OCCCn1cccn1)C(CCN1CCC(N2CCCCC2=O)CC1)c1ccc(Cl)c(Cl)c1)C(=O)c1cc(Cl)cc(Cl)c1 (stereo not drawn)	1.7	25	–	–
N=C(CO/N=C(\COCc1cc(C(F)(F)F)cc(C(F)(F)F)c1)C(CCN1CCC(O)(c2ccccc2)CC1)c1ccc(Cl)c(Cl)c1)NO (stereo not drawn)	17	19	–	–
CO/N=C(\CN(C)C(=O)c1cc(Cl)cc(Cl)c1)C(CCN1CCC(N2CCCCC2=O)CC1)c1ccc(Cl)c(Cl)c1 (stereo not drawn)	4.7	1.6	–	–
COCCO/N=C(\CN(C)C(=O)c1cc(Cl)cc(Cl)c1)C(CCN1CCC(N2CCCCC2=O)CC1)c1ccc(Cl)c(Cl)c1 (stereo not drawn)	2.4	3.1	–	–
CO/C=C(\COCc1cc(C(F)(F)F)cc(C(F)(F)F)c1)C(CCN1CCC(O)(c2ccccc2)CC1)c1ccc(Cl)c(Cl)c1 (stereo not drawn)	33	–	35	–
CN(C)/N=C(\COCc1cc(C(F)(F)F)cc(C(F)(F)F)c1)C(CCN1CCC(O)(c2ccccc2)CC1)c1ccc(Cl)c(Cl)c1 (stereo not drawn)	38	24	–	–
COCCNC(=O)CO/N=C(\CN(C)C(=O)c1cc(Cl)cc(Cl)c1)C(CCN1CCC(N2CCCCC2=O)CC1)c1ccc(Cl)c(Cl)c1 (stereo not drawn)	2.2	48	–	–
CCO/N=C(\COCc1cc(C(F)(F)F)cc(C(F)(F)F)c1)C(CCN1CCC(O)(c2ccccc2)CC1)c1ccc(Cl)c(Cl)c1 (stereo not drawn)	81	107	–	–
CN(C)CCO/N=C(\COCc1cc(C(F)(F)F)cc(C(F)(F)F)c1)C(CCN1CCC(O)(c2ccccc2)CC1)c1ccc(Cl)c(Cl)c1 (stereo not drawn)	103	–	11	–
CN(C/C(=N\OCc1c[nH]cn1)C(CCN1CCC(N2CCCCC2=O)CC1)c1ccc(Cl)c(Cl)c1)C(=O)c1cc(Cl)cc(Cl)c1 (stereo not drawn)	2.2	8.5	–	–
OCCO/N=C(\COCc1cc(C(F)(F)F)cc(C(F)(F)F)c1)C(CCN1CCC(O)(c2ccccc2)CC1)c1ccc(Cl)c(Cl)c1 (stereo not drawn)	20	14	–	–
CSCCCO/N=C(\CN(C)C(=O)c1cc(Cl)cc(Cl)c1)C(CCN1CCC(N2CCCCC2=O)CC1)c1ccc(Cl)c(Cl)c1 (stereo not drawn)	7.4	11.5	–	–

The next lines start with the values.

Ki [1] [nM]	Ki [2] [nM]	inhibition [3] [%]	inhibition [4] [%]	SMILES
0.7	8.8	–	–	CN(C/C(=N\OCCCN)C(CCN1CCC(N2CCCCC2=O)CC1)c1ccc(Cl)c(Cl)c1)C(=O)c1cc(Cl)cc(Cl)c1 (stereo not drawn)
1.6	6.8	–	–	CN(C/C(=N\OCCCn1ccnc1)C(CCN1CCC(N2CCCCC2=O)CC1)c1ccc(Cl)c(Cl)c1)C(=O)c1cc(Cl)cc(Cl)c1 (stereo not drawn)
0.6	0.8	–	–	CN(C/C(=N\OCCO)C(CCN1CCC(N2CCCCC2=O)CC1)c1ccc(Cl)c(Cl)c1)C(=O)c1cc(Cl)cc(Cl)c1 (stereo not drawn)
1.2	4.2	–	–	CN(C/C(=N\OCC(=O)NO)C(CCN1CCC(N2CCCCC2=O)CC1)c1ccc(Cl)c(Cl)c1)C(=O)c1cc(Cl)cc(Cl)c1 (stereo not drawn)
0.9	3.2	–	–	CN(C/C(=N\OCCCS(C)(=O)=O)C(CCN1CCC(N2CCCCC2=O)CC1)c1ccc(Cl)c(Cl)c1)C(=O)c1cc(Cl)cc(Cl)c1 (stereo not drawn)
0.7	394	–	–	CN(C/C(=N\OCC(=O)O)C(CCN1CCC(N2CCCCC2=O)CC1)c1ccc(Cl)c(Cl)c1)C(=O)c1cc(Cl)cc(Cl)c1 (stereo not drawn)
1	1.7	–	–	CNC(=O)NCCCO/N=C(\CN(C)C(=O)c1cc(Cl)cc(Cl)c1)C(CCN1CCC(N2CCCCC2=O)CC1)c1ccc(Cl)c(Cl)c1 (stereo not drawn)
0.4	0.5	–	–	CN(C/C(=N\OCC(=N)NO)[C@H](CCN1CCC(N2CCCCC2=O)CC1)c1ccc(Cl)c(Cl)c1)C(=O)c1cc(Cl)cc(Cl)c1
0.5	50	–	–	CN(C/C(=N\OCCN1CCNCC1)C(CCN1CCC(N2CCCCC2=O)CC1)c1ccc(Cl)c(Cl)c1)C(=O)c1cc(Cl)cc(Cl)c1 (stereo not drawn)
0.7	1.5	–	–	CN(C/C(=N\OCCCO)C(CCN1CCC(N2CCCCC2=O)CC1)c1ccc(Cl)c(Cl)c1)C(=O)c1cc(Cl)cc(Cl)c1 (stereo not drawn)
1.2	4.5	–	–	CN(C/C(=N\OCCCNS(C)(=O)=O)C(CCN1CCC(N2CCCCC2=O)CC1)c1ccc(Cl)c(Cl)c1)C(=O)c1cc(Cl)cc(Cl)c1 (stereo not drawn)
0.8	0.8	–	–	CN(C/C(=N\OCF)C(CCN1CCC(N2CCCCC2=O)CC1)c1ccc(Cl)c(Cl)c1)C(=O)c1cc(Cl)cc(Cl)c1 (stereo not drawn)
0.7	4.8	–	–	CN(C/C(=N\OCCCn1cncn1)C(CCN1CCC(N2CCCCC2=O)CC1)c1ccc(Cl)c(Cl)c1)C(=O)c1cc(Cl)cc(Cl)c1 (stereo not drawn)
1.5	1.4	–	–	CN(C/C(=N\OCC#N)C(CCN1CCC(N2CCCCC2=O)CC1)c1ccc(Cl)c(Cl)c1)C(=O)c1cc(Cl)cc(Cl)c1 (stereo not drawn)
0.8	3.5	–	–	CN(C/C(=N\OCCC[S+](C)[O-])C(CCN1CCC(N2CCCCC2=O)CC1)c1ccc(Cl)c(Cl)c1)C(=O)c1cc(Cl)cc(Cl)c1 (stereo not drawn)
0.9	2	–	–	CN(C/C(=N\OCC(N)=O)C(CCN1CCC(N2CCCCC2=O)CC1)c1ccc(Cl)c(Cl)c1)C(=O)c1cc(Cl)cc(Cl)c1 (stereo not drawn)
0.8	17	–	–	CN(C/C(=N\OCCCn1cnnn1)C(CCN1CCC(N2CCCCC2=O)CC1)c1ccc(Cl)c(Cl)c1)C(=O)c1cc(Cl)cc(Cl)c1 (stereo not drawn)
